Measured values as given in patent US9834558B2, “Substituted bridged urea analogs as sirtuin modulators” (GLAXOSMITHKLINE LLC, priority 2013, dated 2017).
Read-outs that look alike come from different tables or passages of the source.

Target: T1, SIRT1 (Homo sapiens, UniProt Q96EB6)
T1 sequence (Q96EB6 1-747): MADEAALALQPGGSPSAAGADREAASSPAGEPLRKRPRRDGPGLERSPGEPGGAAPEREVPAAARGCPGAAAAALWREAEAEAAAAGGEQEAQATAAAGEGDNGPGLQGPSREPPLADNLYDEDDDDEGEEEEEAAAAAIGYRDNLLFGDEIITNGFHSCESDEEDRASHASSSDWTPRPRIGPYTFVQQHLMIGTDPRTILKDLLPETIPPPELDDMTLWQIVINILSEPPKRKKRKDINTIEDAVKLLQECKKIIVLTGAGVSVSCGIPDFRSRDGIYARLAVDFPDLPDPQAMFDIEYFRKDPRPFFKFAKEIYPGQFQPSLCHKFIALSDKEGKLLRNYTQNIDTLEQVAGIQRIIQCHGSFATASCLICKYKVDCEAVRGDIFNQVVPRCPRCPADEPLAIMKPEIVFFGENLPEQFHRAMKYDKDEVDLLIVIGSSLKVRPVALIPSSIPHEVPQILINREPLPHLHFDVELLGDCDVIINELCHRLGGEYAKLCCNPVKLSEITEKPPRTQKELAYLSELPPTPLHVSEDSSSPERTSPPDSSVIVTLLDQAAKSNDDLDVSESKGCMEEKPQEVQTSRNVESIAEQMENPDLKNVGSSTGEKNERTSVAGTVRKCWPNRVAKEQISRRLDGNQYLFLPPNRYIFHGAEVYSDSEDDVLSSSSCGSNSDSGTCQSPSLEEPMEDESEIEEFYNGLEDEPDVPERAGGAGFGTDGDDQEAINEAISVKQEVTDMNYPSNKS
Test: Trp mass spectrometry assay of SIRT1 activation
Format: biochemical
Settings: for TRP Activity (EC1.5): EC1.5 = concentration that results in 150% activation of SIRT1
Summary of the method: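 N-terminal His-tagged human SIRT1 (10 nM, E. coli BL21(DE3)) with 0.5 μM Ac-RHKK(Ac)W-NH2 peptide and 120 μM βNAD+, 25 min at 25 °C in HEPES pH 7.5, formic acid stop. OAADPR or deacetylated peptide quantified by mass spectrometry; EC1.5 (50% activity increase over control) and Percent Maximum Activation reported.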

[1] = Trp peptide assay, maximum activity relative to control (100%), read-out: TRP MAX RESP (percent maximum fold activation)
[2] = Trp mass spectrometry assay, EC1.5 = concentration of test compound that results in 150% activation of SIRT1
[3] = concentration giving 150% activation of SIRT1, Trp peptide substrate
[4] = Trp peptide substrate, concentration giving 150% activation of SIRT1

Cc1cc(-c2ccc3c(n2)N(C(=O)Nc2cnc4c(c2)OCCO4)[C@H]2CCN3C2)ccn1 [(9S)-N-{2H,3H-[1,4]dioxino[2,3-b]pyridin-7-yl}-5-(2-methylpyridin-4-yl)-1,6,8-triazatricyclo[7.2.1.0 {2,7}]dodeca-2,4,6-triene-8-carboxamide]
TRP Activity (EC1.5) (Trp peptide assay): B (B (EC1.5 1-25 μM)) | Emax [1]: > 150%

O=C(Nc1cccc(-c2cnco2)n1)N1c2nc(-c3cccc(C(F)(F)F)c3)ccc2N2CC[C@H]1C2 [Example 588]
Tryp AVG EC1.5 (μM) [2]: A (A (EC1.5<1 μM))

O=C(Nc1cccc(-c2cccnc2)c1)N1c2nc(-c3cccc(C(F)(F)F)c3)ccc2N2CC[C@H]1C2 [Example 660]
Tryp AVG EC1.5 (μM) [3]: A (A (EC1.5<1 μM))

O=C(Nc1cncc(F)c1)N1c2nc(-c3cccc(N4CCOCC4)c3)ccc2N2CCC[C@H]1C2 [Example 559]
Tryp AVG EC1.5 (μM) [2]: A (A (EC1.5<1 μM))

Cc1nc(NC(=O)N2c3nc(-c4cncc(F)c4)ccc3N3CCC[C@H]2C3)sc1C [Example 471]
Tryp AVG EC1.5 (μM) [2]: B (B (EC1.5 1-25 μM))

Cc1cc(-c2ccc3c(n2)N(C(=O)Nc2nccc4nccnc24)[C@H]2CCN3C2)ccn1 [(9S)-5-(2-methylpyridin-4-yl)-N-{pyrido[3,4-b]pyrazin-5-yl}-1,6,8-triazatricyclo[7.2.1.0 {2,7}]dodeca-2,4,6-triene-8-carboxamide]
TRP Activity (EC1.5) (Trp peptide assay): B (B (EC1.5 1-25 μM)) | Emax [1]: > 150%

Cc1ccc(-c2ccc3c(n2)N(C(=O)NC2CCCOC2)[C@H]2CCN3C2)cn1 (stereo partly drawn) [(9S)-5-(6-methylpyridin-3-yl)-N-(oxan-3-yl)-1,6,8-triazatricyclo[7.2.1.0^{2,7}]dodeca-2(7),3,5-triene-8-carboxamide]
TRP Activity (EC1.5) (Trp peptide assay): C (C (EC1.5>25 μM)) | Emax [1]: < 150%

N#Cc1ccccc1-c1ccc2c(n1)N(C(=O)Nc1cccnc1)[C@H]1CCCN2C1 [Example 438]
Tryp AVG EC1.5 (μM) [2]: B (B (EC1.5 1-25 μM))

O=C(Nc1cccc(-c2cnco2)c1)N1c2nc(N3CCC[C@@H](C(F)(F)F)C3)ccc2N2CC[C@H]1C2 [Example 717]
Tryp AVG EC1.5 (μM) [3]: A (A (EC1.5<1 μM))

O=C(Nc1cccnc1)N1c2nc(-c3cncc(Cl)c3)ccc2N2CCC1CC2 [Example 544]
Tryp AVG EC1.5 (μM) [2]: B (B (EC1.5 1-25 μM))

NC(=O)c1ccc(NC(=O)N2c3nc(-c4cccc(C(F)(F)F)c4)ccc3N3CC[C@H]2C3)cc1 [Example 659]
Tryp AVG EC1.5 (μM) [3]: A (A (EC1.5<1 μM))

N#Cc1cncc(-c2ccc3c(n2)N(C(=O)Nc2ccncn2)[C@H]2CCCN3C2)c1 [Example 558]
Tryp AVG EC1.5 (μM) [2]: B (B (EC1.5 1-25 μM))

O=C(NCC1CC1)c1ccc2c(n1)N(C(=O)Nc1ccccn1)[C@H]1CCN2C1 [(9S)-5-N-(cyclopropylmethyl)-8-N-(pyridin-2-yl)-1,6,8-triazatricyclo[7.2.1.0 {2,7}]dodeca-2(7),3,5-triene-5,8-dicarboxamide]
TRP Activity (EC1.5) (Trp peptide assay): A (A (EC1.5<1 μM)) | Emax [1]: > 150%

O=C(Nc1cc(-c2cnco2)ccn1)N1c2nc(-c3cccc(C(F)(F)F)c3)ccc2N2CC[C@H]1C2 [Example 589]
Tryp AVG EC1.5 (μM) [2]: A (A (EC1.5<1 μM))

O=C(Nc1cc(-c2cnco2)ccn1)N1c2nc(-c3cccc(C(F)(F)F)c3)ccc2N2CCC1CC2 [Example 595]
Tryp AVG EC1.5 (μM) [2]: A (A (EC1.5<1 μM))

O=C(Nc1ccccn1)N1c2nc(-c3cccc(Cl)c3)ccc2N2CCC1CC2 [Example 533]
Tryp AVG EC1.5 (μM) [2]: B (B (EC1.5 1-25 μM))

O=C(Nc1cnccn1)N1c2nc(-c3ccnc(N4CC[C@@H](F)C4)c3)ccc2N2CC[C@H]1C2 [Example 462]
Tryp AVG EC1.5 (μM) [2]: B (B (EC1.5 1-25 μM))

Cn1nccc1-c1ccc2c(n1)N(C(=O)Nc1cccnc1)[C@H]1CCN2C1 [Example 524]
Tryp AVG EC1.5 (μM) [2]: B (B (EC1.5 1-25 μM))

O=C(Nc1cccc(-c2cnco2)c1)N1c2nc(-c3cncc(Cl)c3)ccc2N2CCC1CC2 [Example 575]
Tryp AVG EC1.5 (μM) [2]: A (A (EC1.5<1 μM))

Cc1cc(C)n(N)c1CC1C=CC(CCC(=O)NCc2cn(-c3cccc(NC(=O)N4c5nc(-c6cccc(C(F)(F)F)c6)ccc5N5CC[C@H]4C5)c3)nn2)=N1 (some centres unmarked) [Example 622]
Tryp AVG EC1.5 (μM) [2]: C (C (EC1.5>25 μM)) | Emax (Trp mass spectrometry assay, percent maximum fold activation of SIRT1, read-out: Tryp % Fold Act): < 150%

CS(=O)(=O)N1CCCN(c2ccc3c(n2)N(C(=O)Nc2ccncn2)[C@H]2CCCN3C2)CC1 [Example 433]
Tryp AVG EC1.5 (μM) [2]: B (B (EC1.5 1-25 μM))

Cc1cccnc1NC(=O)N1c2nc(-c3cccc(Cl)c3)ccc2N2CC[C@H]1C2 [Example 106]
Tryp AVG EC1.5 (μM) [4]: C (C (EC1.5>25 μM))

COc1cc(NC(=O)N2c3nc(-c4cccc(C(F)(F)F)c4)ccc3N3C[C@@H](O)[C@H]2C3)nc(OC)n1 [Example 664]
Tryp AVG EC1.5 (μM) [3]: B (B (EC1.5 1-25 μM))

C[C@H]1CN(c2ccc3c(n2)N(C(=O)Nc2cnccn2)[C@H]2CCN3C2)C[C@H](C)O1 [(9S)-5-[(2S,6S)-2,6-dimethylmorpholin-4-yl]-N-(pyrazin-2-yl)-1,6,8-triazatricyclo[7.2.1.0^{2,7}]dodeca-2(7),3,5-triene-8-carboxamide]
TRP Activity (EC1.5) (Trp peptide assay): B (B (EC1.5 1-25 μM)) | Emax [1]: > 150%

CC(C)(C)OC(=O)N1CCCc2ccc(NC(=O)N3c4nc(-c5cccc(C(F)(F)F)c5)ccc4N4CC[C@H]3C4)cc21 [Example 610]
Tryp AVG EC1.5 (μM) [2]: B (B (EC1.5 1-25 μM))

Cc1cc(-c2ccc3c(n2)N(C(=O)NC2CCCC2)[C@H]2CCN3C2)ccn1 [(9S)-N-cyclopentyl-5-(2-methylpyridin-4-yl)-1,6,8-triazatricyclo[7.2.1.0 {2,7}]dodeca-2,4,6-triene-8-carboxamide]
TRP Activity (EC1.5) (Trp peptide assay): B (B (EC1.5 1-25 μM)) | Emax [1]: > 150%

O=C(Nc1cnccn1)N1c2nc(-c3cncc(Cl)c3)ccc2N2CCC[C@H]1C2 [Example 417]
Tryp AVG EC1.5 (μM) (Trp mass spectrometry assay, concentration of test compound giving 150% activation of SIRT1): A (A (EC1.5<1 μM))

CCOc1cc(-c2ccc3c(n2)N(C(=O)Nc2cnccn2)[C@H]2CCN3C2)ccn1 [(9S)-5-(2-ethoxypyridin-4-yl)-N-(pyrazin-2-yl)-1,6,8-triazatricyclo[7.2.1.0 {2,7}]dodeca-2(7),3,5-triene-8-carboxamide]
TRP Activity (EC1.5) (Trp peptide assay): B (B (EC1.5 1-25 μM)) | Emax [1]: > 150%

O=C(Nc1cncc(F)c1)N1c2nc(-c3ccnc(C(F)(F)F)c3)ccc2N2CCC[C@H]1C2 [(9S)-N-(5-fluoropyridin-3-yl)-5-[2-(trifluoromethyl)pyridin-4-yl]-1,6,8-triazatricyclo[7.3.1.0 {2,7}]trideca-2(7),3,5-triene-8-carboxamide]
TRP Activity (EC1.5) (Trp peptide assay): A (A (EC1.5<1 μM)) | Emax [1]: > 150%

O=C(Nc1ccnc(Br)c1)N1c2nc(-c3cccc(C(F)(F)F)c3)ccc2N2CC[C@H]1C2 [Example 541]
Tryp AVG EC1.5 (μM) [2]: A (A (EC1.5<1 μM))

COc1cc(NC(=O)N2c3nc(-c4cnccc4C)ccc3N3CCC[C@H]2C3)ncn1 [Example 511]
Tryp AVG EC1.5 (μM) [2]: C (C (EC1.5>25 μM))

O=C(Nc1cnccn1)N1c2nc(-c3ccc(C4CC4)nc3)ccc2N2CC[C@H]1C2 [(9S)-5-(6-cyclopropylpyridin-3-yl)-N-(pyrazin-2-yl)-1,6,8-triazatricyclo[7.2.1.0 {2,7}]dodeca-2(7),3,5-triene-8-carboxamide]
TRP Activity (EC1.5) (Trp peptide assay): B (B (EC1.5 1-25 μM)) | Emax [1]: > 150%

NCc1cnnn1-c1cccc(NC(=O)N2c3nc(-c4cccc(C(F)(F)F)c4)ccc3N3CC[C@H]2C3)c1 [Example 640]
Tryp AVG EC1.5 (μM) [3]: A (A (EC1.5<1 μM))

COc1cc(NC(=O)N2c3nc(-c4cccc(Cl)c4)ccc3N3CC[C@H]2C3)ncn1 [Example 104]
Tryp AVG EC1.5 (μM) [4]: B (B (EC1.5 1-25 μM))

Cc1nc(NC(=O)N2c3nc(-c4cccc(C(F)(F)F)c4)ccc3N3C[C@@H](O)[C@H]2C3)sc1C [Example 699]
Tryp AVG EC1.5 (μM) [3]: B (B (EC1.5 1-25 μM))

O=C(Nc1ccccn1)N1c2nc(-c3cccnc3)ccc2N2CCC[C@H]1C2 [Example 441]
Tryp AVG EC1.5 (μM) [2]: B (B (EC1.5 1-25 μM))

COC(=O)c1cccc(NC(=O)N2c3nc(-c4cccc(C(F)(F)F)c4)ccc3N3CC[C@H]2C3)c1 [Example 626]
Tryp AVG EC1.5 (μM) [3]: A (A (EC1.5<1 μM))
